Source: DBAASP
Converted amounts (≈) assume the structure as drawn. “And” between values parts separate entries of the source, which are not always exact repeats. Equal values may be shown once.

Experiments:
Assay in all cases: ≥ marks a high value that may be exact or a test limit, other limits are often not marked, values filed in µg/mL are converted to µM
Lactobacillus crispatus = test system: Lactobacillus crispatus
Aeromonas hydrophila = test system: Aeromonas hydrophila
Candida albicans = test system: Candida albicans
[1] = test system: Staphylococcus aureus ATCC 43300
[2] = test system: Lactiplantibacillus plantarum ATCC 14917
[3] = test system: Lactobacillus crispatus ATCC 33820
[4] = test system: Pseudomonas aeruginosa ATCC 27853
[5] = test system: Gardnerella vaginalis ATCC 49145
[6] = test system: Lactobacillus gasseri ATCC 33323
[7] = test system: Staphylococcus aureus ATCC 49476
[8] = test system: Streptococcus intermedius
[9] = test system: Staphylococcus aureus ATCC 25923
[10] = test system: Bacillus subtilis ATCC 9372
Bacillus subtilis = test system: Bacillus subtilis
[11] = test system: Enterococcus faecalis ATCC 51299
[12] = test system: Lactobacillus jensenii ATCC 25258
Staphylococcus aureus = test system: Staphylococcus aureus
[13] = test system: Staphylococcus aureus ATCC 31007
Escherichia coli = test system: Escherichia coli
Staphylococcus aureus MR = test system: Staphylococcus aureus MR
[14] = test system: Escherichia coli ATCC 25922
Pseudomonas aeruginosa = test system: Pseudomonas aeruginosa
Enterococcus avium = test system: Enterococcus avium
Edwardsiella tarda = test system: Edwardsiella tarda
[15] = test system: Bacillus pumilus ATCC 63202
Streptococcus agalactiae = test system: Streptococcus agalactiae
Streptococcus anginosus = test system: Streptococcus anginosus
Gardnerella vaginalis = test system: Gardnerella vaginalis
[16] = test system: Streptococcus pasteurianus
[17] = test system: Gardnerella vaginalis ATCC 14018
[18] = test system: Enterococcus faecium ATCC 51559
[19] = test system: Candida albicans ATCC 14053
[20] = test system: Peptoniphilus asaccharolyticus ATCC 29743
[21] = test system: Peptostreptococcus anaerobius
Fusobacterium nucleatum = test system: Fusobacterium nucleatum
[22] = test system: Salmonella enterica subsp. enterica serovar Typhimurium LT2
[23] = test system: Fusobacterium varium ATCC 27725
Cutibacterium acnes = test system: Cutibacterium acnes
Clostridium septicum = test system: Clostridium septicum
[24] = test system: Prevotella melaninogenica
[25] = test system: Staphylococcus aureus T7/5
[26] = test system: Staphylococcus aureus T17/13
[27] = test system: Klebsiella pneumoniae KK3 9904
[28] = test system: Enterobacter cloacae HNTCC 53001
[29] = test system: Enterococcus faecalis ATCC 29212
Bacteroides fragilis = test system: Bacteroides fragilis
[30] = test system: Bacteroides fragilis ATCC 25285
[31] = test system: Clostridium perfringens ATCC 10543
[32] = test system: Proteus mirabilis ATCC 25933
[33] = test system: Staphylococcus epidermidis RP62A
[34] = test system: Staphylococcus aureus NCTC 8325
[35] = test system: Cutibacterium acnes ATCC 11828
[36] = test system: Candida albicans ATCC 90028
[37] = test system: Clostridium tertium ATCC 19465

CC[C@H](C)[C@H](NC(=O)[C@H](C)NC(=O)[C@H](CCCCN)NC(=O)CNC(=O)[C@H](C)NC(=O)[C@H](CO)NC(=O)[C@H](Cc1ccccc1)NC(=O)[C@H](CC(C)C)NC(=O)CNC(=O)CNC(=O)[C@@H](NC(=O)[C@@H](NC(=O)[C@H](Cc1cnc[nH]1)NC(=O)[C@H](Cc1cnc[nH]1)NC(=O)[C@@H](NC(=O)[C@@H](N)Cc1ccccc1)[C@@H](C)CC)[C@@H](C)CC)[C@@H](C)CC)C(=O)N[C@@H](Cc1cnc[nH]1)C(=O)N[C@@H](CCCN=C(N)N)C(=O)N[C@@H](CC(C)C)C(=O)N[C@H](C(=O)N[C@@H](CCCN=C(N)N)C(=O)N[C@@H](CCCN=C(N)N)C(=O)N[C@@H](CCCN=C(N)N)C(=O)N[C@@H](CCCN=C(N)N)C(=O)N[C@@H](CCCN=C(N)N)C(=O)O)[C@@H](C)CC [FIHHIIGGLFSAGKAIHRLIRRRRR]
MIC (Lactobacillus crispatus): 29.6 µM (≈ 88.4 µg/mL) | MIC (Aeromonas hydrophila): ≥ 160 µM | MIC (Candida albicans): 26.7 µM and 42.9 µM | MIC [1]: 2.7 µM (≈ 8.05 µg/mL) | MIC [2]: ≥ 41.9 µM | MIC [3]: ≥ 41.9 µM | MIC [4]: 21.5 µM (≈ 64 µg/mL) | MIC [5]: 1.31 µM (≈ 3.91 µg/mL) | MIC [6]: ≥ 168 µM | MIC [7]: 2.68 µM (≈ 8 µg/mL) | MIC [8]: 5.24 µM (≈ 15.6 µg/mL) | MIC [9]: 2.7 µM and 5.4 µM | MIC [10]: 2.7 µM (≈ 8.05 µg/mL) | MIC (Bacillus subtilis): 1.7 µM (≈ 5.07 µg/mL) | MIC [11]: 10.8 µM (≈ 32.2 µg/mL) | MIC [12]: ≥ 83.8 µM | MIC (Staphylococcus aureus): 5 µM (≈ 14.9 µg/mL) | MIC [13]: 5.4 µM (≈ 16.1 µg/mL) | MIC (Escherichia coli): 5 µM and 1.85 µM | MIC (Staphylococcus aureus MR): 5.37 µM (≈ 16 µg/mL) | MIC [14]: 42.9 µM (≈ 128 µg/mL) | MIC (Pseudomonas aeruginosa): 6.67 µM (≈ 19.9 µg/mL) | MIC (Enterococcus avium): 0.926 µM (≈ 2.76 µg/mL) | MIC (Edwardsiella tarda): 20 µM (≈ 59.6 µg/mL) | MIC [15]: 1.3 µM (≈ 3.88 µg/mL) | MIC (Streptococcus agalactiae): 3.71 µM (≈ 11 µg/mL) | MIC (Streptococcus anginosus): 3.71 µM (≈ 11 µg/mL) | MIC (Gardnerella vaginalis): 1.85 µM (≈ 5.53 µg/mL) | MIC [16]: 1.85 µM (≈ 5.53 µg/mL) | MIC [17]: 1.31 µM and 2.62 µM | MIC [18]: 2.7 µM (≈ 8.05 µg/mL) | MIC [19]: 2.62 µM (≈ 7.81 µg/mL)

CC[C@H](C)[C@H](NC(=O)[C@@H](N)CCCN=C(N)N)C(=O)NCC(=O)N[C@H](C(=O)N[C@@H](CC(C)C)C(=O)N[C@@H](CC(C)C)C(=O)N[C@@H](C)C(=O)N[C@@H](CCCN=C(N)N)C(=O)N[C@@H](CC(C)C)C(=O)N1CCC[C@H]1C(=O)N[C@@H](CCCCN)C(=O)N[C@@H](CC(C)C)C(=O)N[C@@H](Cc1ccccc1)C(=O)N[C@@H](CO)C(=O)N[C@@H](CC(C)C)C(=O)N[C@@H](Cc1ccccc1)C(=O)N[C@@H](CCCCN)C(=O)N[C@@H](CC(C)C)C(=O)N[C@@H](CCSC)C(=O)NCC(=O)N[C@@H](CCCCN)C(=O)N[C@@H](CCCCN)C(=O)N[C@H](C(=O)O)C(C)C)C(C)C [RIGVLLARLPKLFSLFKLMGKKV]
MIC [20]: ≥ 50 µM | MIC [4]: 6 µM (≈ 15.8 µg/mL) | MIC [21]: 25 µM (≈ 65.7 µg/mL) | MIC (Fusobacterium nucleatum): ≥ 50 µM | MIC [22]: 25 µM (≈ 65.7 µg/mL) | MIC [23]: ≥ 50 µM | MIC [14]: 2.5 µM (≈ 6.57 µg/mL) | MIC (Cutibacterium acnes): 6 µM (≈ 15.8 µg/mL) | MIC (Clostridium septicum): ≥ 50 µM | MIC [24]: 6 µM (≈ 15.8 µg/mL) | MIC [25]: 20 µM (≈ 52.6 µg/mL) | MIC [26]: 10 µM (≈ 26.3 µg/mL) | MIC [27]: 12.5 µM (≈ 32.9 µg/mL) | MIC [28]: 6 µM (≈ 15.8 µg/mL) | MIC [29]: 12.5 µM (≈ 32.9 µg/mL) | MIC (Bacteroides fragilis): ≥ 50 µM | MIC [30]: ≥ 50 µM | MIC [31]: 12.5 µM (≈ 32.9 µg/mL) | MIC [32]: ≥ 100 µM | MIC [33]: 6 µM (≈ 15.8 µg/mL) | MIC [34]: ≥ 40 µM | MIC [35]: 12.5 µM (≈ 32.9 µg/mL) | MIC [36]: ≥ 80 µM | MIC [37]: 12.5 µM (≈ 32.9 µg/mL)
